The source of these data is publication PMC4282330, “The yeast enzyme Eht1 is an octanoyl-CoA:ethanol acyltransferase that also functions as a thioesterase” (Yeast (Chichester, England), 2014).

“And” between values parts separate entries of the source, which are not always exact repeats. Identical values can stand only once.

One data set addresses T1, Eht1 (Saccharomyces cerevisiae, UniProt P38295).
T1 construct: 55 kDa
T1 sequence (P38295 1-451): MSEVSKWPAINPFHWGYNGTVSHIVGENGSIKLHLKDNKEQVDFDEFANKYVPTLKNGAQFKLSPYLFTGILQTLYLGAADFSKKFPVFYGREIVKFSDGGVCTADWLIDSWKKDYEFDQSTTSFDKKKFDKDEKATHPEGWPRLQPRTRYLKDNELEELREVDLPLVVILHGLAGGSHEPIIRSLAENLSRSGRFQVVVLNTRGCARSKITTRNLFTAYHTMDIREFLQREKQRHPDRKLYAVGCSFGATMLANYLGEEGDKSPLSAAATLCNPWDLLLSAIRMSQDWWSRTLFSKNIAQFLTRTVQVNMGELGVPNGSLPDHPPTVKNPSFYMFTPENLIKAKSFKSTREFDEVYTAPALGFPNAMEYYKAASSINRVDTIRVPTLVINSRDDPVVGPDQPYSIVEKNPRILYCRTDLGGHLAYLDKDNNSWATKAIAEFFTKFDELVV
The data set is described as follows: coupled alpha-ketoglutarate dehydrogenase assay of CoA release (NADH). The class given is biochemical. The conditions noted are these: 0.125% ethanol, pH 7.4, 25 °C; assay insensitive to ethanol (thioesterase).

Data set [1] deals with the molecule itself. Nature of the data set: native gel or EMSA; blue native PAGE, 4–16% acrylamide Bis–Tris gels, Coomassie G-250 added to samples at 0.005%; purified Eht1 in FC12. (Mobility shift assays separate free from complexed probe on a gel.)
Data set [2] concerns the molecule itself. Nature of the data set: SEC; Superdex 200 10/300 GL, 0.5 ml/min, in Column Buffer (50 mM sodium phosphate, pH 7.4, 150 mM NaCl, 5% glycerol, 0.1% FC-12); apparent size relative to molecular weight standards. On the technique in general: SEC sorts molecules by how far they enter the pores of the column.
Substrate in data set [3]: CCCCCCCC(=O)SCCNC(=O)CCNC(=O)[C@H](O)C(C)(C)COP(=O)(O)OP(=O)(O)OC[C@H]1O[C@@H](n2cnc3c(N)ncnc32)[C@H](O)[C@@H]1OP(=O)(O)O
The data set is described as follows: coupled alpha-ketoglutarate dehydrogenase assay of CoA release (NADH). The class given is biochemical, Saccharomyces cerevisiae. The conditions noted are these: 0.125% ethanol, pH 7.4, 25 °C, assay insensitive to ethanol (thioesterase). From the text: coupled alpha-ketoglutarate dehydrogenase assay of CoA release (NADH) on Eht1 | the preferred substrate for Eht1 was octanoyl-CoA (largest kcat/KM)

Regarding `CCCC(=O)SCCNC(=O)CCNC(=O)[C@H](O)C(C)(C)COP(=O)(O)OP(=O)(O)OC[C@H]1O[C@@H](n2cnc3c(N)ncnc32)[C@H](O)[C@@H]1OP(=O)(O)O` [C4, acyl-CoA of chain length C4], the KM result on Eht1 is given as “acyl-CoA substrates of chain length C4–C14 followed classical Michaelis–Menten kinetics”.
On the same count and under the same terms, under `CCCCCCCCCCCCCC(=O)SCCNC(=O)CCNC(=O)[C@H](O)C(C)(C)COP(=O)(O)OP(=O)(O)OC[C@H]1O[C@@H](n2cnc3c(N)ncnc32)[C@H](O)[C@@H]1OP(=O)(O)O` [C14, acyl-CoA of chain length C14] stands “acyl-CoA substrates of chain length C4–C14 followed classical Michaelis–Menten kinetics”; under `CCCCCCCCCCCC(=O)SCCNC(=O)CCNC(=O)[C@H](O)C(C)(C)COP(=O)(O)OP(=O)(O)OC[C@H]1O[C@@H](n2cnc3c(N)ncnc32)[C@H](O)[C@@H]1OP(=O)(O)O` [acyl-CoA within chain lengths C4–C14 (C12)], “acyl-CoA substrates of chain length C4–C14 followed classical Michaelis–Menten kinetics”; under `CCCCCCCCCC(=O)SCCNC(=O)CCNC(=O)[C@H](O)C(C)(C)COP(=O)(O)OP(=O)(O)OC[C@H]1O[C@@H](n2cnc3c(N)ncnc32)[C@H](O)[C@@H]1OP(=O)(O)O` [decanoyl-CoA], “acyl-CoA substrates of chain length C4–C14 followed classical Michaelis–Menten kinetics”.

B1: ethanol hexanoyl transferase 1 (Eht1) (enzyme, Saccharomyces cerevisiae, UniProt P38295 1-451, looked up)
chain: T1 sequence (P38295 1-451)
notes: Theoretical mass of the recombinant protein is printed as 55 kDa; also called recombinant Eht1; YBR177C gene product; source: yeast, plasmid pYES2CT, galactose-induced; purified from FC12-solubilized sedimenting membranes (Ni-NTA)
Regarding B1, the “stoichiometry N” value in data set [1] is ~2 and ~4. Besides, the “stoichiometry N” value in data set [2] was about 5. Besides, in data set [3], the Km came out at 1.9 ± 0.6 µM and the catalytic constant (kcat) was found to be 0.28 ± 0.02 s⁻¹.

In general, stoichiometry N refers to the number of molecules, sites or subunits per partner or assembly. One may read the Km as the concentration of substrate that gives half-maximal velocity. For orientation: kcat means the number of substrate molecules converted per active site and unit of time at saturation.
